System: EMT-6 breast tumor xenograft
Assay: MicroPET imaging studies in mice bearing EMT-6 breast tumor
Type: in vivo, Balb-c mice
Description: The no-carrier-added (NCA) study is on the left and the sigma receptor blocking study (1 mg/kg, i.v. YUN-143) is shown on the right.
This compound was studied in mature Balb/C mice that were implanted with EMT-6 mammary tumors. The mice were implanted in the nape of the neck 7 days prior to the study. The biodistribution study consisted of three groups: 1 hr low dose (≈6 μCi), 4 hr low dose and a 4 hr high dose (≈150 μCi). The % ID/g at 1 hr for tumor, brain, fat, blood and liver were 4.0±0.4, 0.25±0.02, 1.1±0.4, 2.1±0.3 and 5.4±0.4, respectively. At 4 hr for the low dose animals the values decreased to 1.2±0.2, 0.15±0.02, 0.3±0.2, 0.82±0.08 and 1.3±0.2, respectively. […] The activity injected into the high dose animals was enough to perform microPET® imaging studies. […] This initial study has shown that this σ2 receptor compound has a high uptake into EMT-6 mammary tumors and can be imaged non-invasively. (MicroPET® is a dedicated PET scanner designed for high resolution imaging of small laboratory animals. It is available from Concorde Microsystems, Inc. 10427 Cogdill Rd, Suite 500 Knoxville, Tenn. 37932 USA.)
MicroPET® Imaging Studies—The inventors conducted microPET® imaging studies with [^76Br]6 in Balb-c mice bearing EMT-6 breast tumor xenografts to model a living mammal afflicted with cancer.

## COc1cc2c(cc1OC)CN(CCCCNC(=O)c1cc([76Br])cc(OC)c1OC)CC2 [[^76Br]6]
High dose animals, 1 and 2 hr, three animals
  microPET imaging: identification of tumors: tumors were clearly identified
no-carrier-added versus blocking with YUN-143 1 mg/kg i.v.
  microPET imaging: tumor uptake, NCA study versus sigma receptor blocking study: high uptake of the radiotracer in the NCA study (left image), which can be blocked with a known sigma receptor ligand
